“And” between values parts separate entries of the source, which are not always exact repeats. Equal values may be shown once. Read-outs that look alike come from different tables or passages of the source.
What was measured:
[1] = target: T1, Drosophila OR10a (Drosophila melanogaster, UniProt Q9VYZ1); assay: Calcium ion fluorescence (GCaMP6) assay, OR10a stable HEK293 cell line; type: cell-based
T1 construct: expressed in transfected cells
T1 sequence (Q9VYZ1 1-406): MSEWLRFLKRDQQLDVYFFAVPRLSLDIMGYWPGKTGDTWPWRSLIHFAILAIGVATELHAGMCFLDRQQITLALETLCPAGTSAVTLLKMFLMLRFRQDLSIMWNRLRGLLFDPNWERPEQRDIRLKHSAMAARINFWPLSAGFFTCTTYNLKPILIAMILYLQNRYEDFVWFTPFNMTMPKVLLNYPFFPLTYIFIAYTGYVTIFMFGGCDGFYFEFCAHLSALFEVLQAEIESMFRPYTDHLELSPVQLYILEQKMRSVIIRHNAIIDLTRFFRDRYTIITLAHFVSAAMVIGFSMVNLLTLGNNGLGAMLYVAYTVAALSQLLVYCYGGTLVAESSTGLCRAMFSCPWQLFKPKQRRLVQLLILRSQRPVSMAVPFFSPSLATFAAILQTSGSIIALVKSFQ
T1 sequence (Q9VNB5 1-486 partner): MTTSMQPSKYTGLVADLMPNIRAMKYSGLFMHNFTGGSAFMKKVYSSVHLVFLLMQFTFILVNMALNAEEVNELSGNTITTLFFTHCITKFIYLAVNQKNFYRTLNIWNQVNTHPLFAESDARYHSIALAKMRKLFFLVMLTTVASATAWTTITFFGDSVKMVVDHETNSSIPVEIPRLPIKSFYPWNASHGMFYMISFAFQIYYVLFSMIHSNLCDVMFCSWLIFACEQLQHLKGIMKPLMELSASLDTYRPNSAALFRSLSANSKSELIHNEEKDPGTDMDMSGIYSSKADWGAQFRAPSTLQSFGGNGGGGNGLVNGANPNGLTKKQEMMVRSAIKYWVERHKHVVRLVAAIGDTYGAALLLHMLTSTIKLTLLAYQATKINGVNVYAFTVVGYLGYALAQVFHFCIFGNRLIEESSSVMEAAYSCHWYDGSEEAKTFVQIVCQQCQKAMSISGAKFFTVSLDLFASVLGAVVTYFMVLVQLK
Outline: (§1)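 Responses are VUAA1-normalized ΔF: each VOC-evoked calcium signal, (FMAX−F0)/F0 over 30 s after injection, divided by the same line's mean 50 µM VUAA1 response. Cells were doxycycline-induced HEK293 with GCaMP6 and the cognate Drosophila OR, in HEPES buffer pH 7.3; ligands tested 0.01–100 μM.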

[2] = target: T2, Drosophila OR13a (Drosophila melanogaster, UniProt Q9VXL0); assay: Calcium ion fluorescence (GCaMP6) assay, OR13a stable HEK293 cell line; type: cell-based; settings: for DF norm AVERAGE OR13a: normalized fluorescence change, values below 0.05 threshold given as 0; for dose-response, AVERAGE response: N 3
T2 construct: expressed in transfected cells
T2 sequence (Q9VXL0 1-418): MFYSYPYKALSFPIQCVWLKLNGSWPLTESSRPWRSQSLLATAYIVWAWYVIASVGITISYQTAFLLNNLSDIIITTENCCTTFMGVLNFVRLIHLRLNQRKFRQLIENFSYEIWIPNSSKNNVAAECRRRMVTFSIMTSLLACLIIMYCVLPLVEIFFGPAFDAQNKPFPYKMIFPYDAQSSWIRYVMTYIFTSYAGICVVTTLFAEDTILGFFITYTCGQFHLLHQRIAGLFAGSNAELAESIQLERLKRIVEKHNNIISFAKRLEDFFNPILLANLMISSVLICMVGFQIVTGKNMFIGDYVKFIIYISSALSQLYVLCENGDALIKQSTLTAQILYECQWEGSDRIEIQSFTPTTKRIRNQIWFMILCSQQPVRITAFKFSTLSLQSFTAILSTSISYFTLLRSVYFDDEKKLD
T2 sequence (Q9VNB5 1-486 partner): T1 sequence (Q9VNB5 1-486 partner)
Outline: as §1

[3] = HEK293, 1 μM VOC, 50 μM VUAA1 = 1, responses not exceeding 0.05 considered 0, read-out: OR10a Average response (VUAA1-normalized)
[4] = HEK293, 10 μM VOC, 50 μM VUAA1 = 1, responses not exceeding 0.05 considered 0, read-out: OR10a Average response (VUAA1-normalized)
[5] = HEK293, 100 μM VOC, 50 μM VUAA1 = 1, responses not exceeding 0.05 considered 0, read-out: OR10a Average response (VUAA1-normalized)
[6] = HEK293, read-out: OR10a response (VUAA1-normalized response), VOC concentration 1 μM
[7] = HEK293, read-out: OR10a response (VUAA1-normalized response), VOC concentration 10 μM
[8] = HEK293, read-out: OR10a response (VUAA1-normalized response), VOC concentration 100 μM
[9] = concentration 10, normalized fluorescence change, values below 0.05 threshold given as 0
[10] = HEK293, read-out: OR13a Average response (VUAA1-normalized), 1 μM VOC, 50 μM VUAA1 = 1, responses not exceeding 0.05 considered 0
[11] = HEK293, read-out: OR13a Average response (VUAA1-normalized), 10 μM VOC, 50 μM VUAA1 = 1, responses not exceeding 0.05 considered 0
[12] = HEK293, read-out: OR13a Average response (VUAA1-normalized), 100 μM VOC, 50 μM VUAA1 = 1, responses not exceeding 0.05 considered 0
[13] = HEK293, read-out: OR13a response (VUAA1-normalized response), VOC concentration 1 μM
[14] = HEK293, read-out: OR13a response (VUAA1-normalized response), VOC concentration 10 μM
[15] = HEK293, read-out: OR13a response (VUAA1-normalized response), VOC concentration 100 μM
[16] = the 13th table, VOC concentration 2.5
[17] = the 13th table, VOC concentration 5
[18] = the 13th table, VOC concentration 25
[19] = the 13th table, VOC concentration 50
[20] = the 13th table, VOC concentration 100
[21] = 1 μM VOC, 50 μM VUAA1 = 1, responses not exceeding 0.05 considered 0
[22] = 10 μM VOC, 50 μM VUAA1 = 1, responses not exceeding 0.05 considered 0
[23] = 100 μM VOC, 50 μM VUAA1 = 1, responses not exceeding 0.05 considered 0

| Compound | DF norm AVERAGE OR10a [1] | activation at 1 µM [1, 3] [%] | activation at 10 µM [1, 4] [%] | activation at 100 µM [1, 5] [%] | activation at 1 µM [1, 6] [%] | activation at 10 µM [1, 7] [%] | activation at 100 µM [1, 8] [%] | DF norm AVERAGE OR10a [1, 9] | activation at 1 µM [2, 10] [%] | activation at 10 µM [2, 11] [%] | activation at 100 µM [2, 12] [%] | activation at 1 µM [2, 13] [%] | activation at 10 µM [2, 14] [%] | activation at 100 µM [2, 15] [%] | DF norm AVERAGE OR13a ([2]; concentration 1) | DF norm AVERAGE OR13a ([2]; concentration 10) | DF norm AVERAGE OR13a ([2]; concentration 100) | other results |
| --- | --- | --- | --- | --- | --- | --- | --- | --- | --- | --- | --- | --- | --- | --- | --- | --- | --- | --- |
| CCCCCC(O)CC (centres unmarked) [3-octanol] | 0 | 0 | 6 | 6 | 0 | 6 | 6 | 0.05884 | 0 | 0 | 12 | 0 | 0 | 12 | 0 | 0 | 0.1167 | DF norm AVERAGE OR10a ([1]; concentration 100, normalized fluorescence change, values below 0.05 threshold given as 0): 0.05921 |
| CCCCCC(=O)CC [3-octanone] |  | 2 | 10 | 2.65 | 0 | 10 | 0 |  | 0 | 0 | 2.55 | 0 | 0 | 0 | 0 | 0 | 0 |  |
| Cc1ccc(O)cc1 [4-methylphenol] |  | 2.37 | 1.81 | 6.62 | 0 | 0 | 6.62 |  | 4.62 | 2 | 1.38 | 0 | 0 | 0 | 0 | 0 | 0 |  |
| C=CC(O)C/C=C\CC (centres unmarked) [(5Z)-octa-1,5-dien-3-ol] | 0 | 0 | 2.25 | 0 | 0 | 0 | 0 |  | 0 | 15 | 37 | 0 | 15 | 37 | 0 | 0.1531 | 0.3701 | EC50 ([2]; EC50, fitted average curve, the 13th table, fit to the average curve, n 0.854956): 7.19 µM; EC50 ([2]; EC50, fitted parameter per biological replicate, the 13th table, OR13a D-R (5Z)-octa-1,5-dien-3-ol, individual replicate fits, MIN 0, n 1): 9.97 µM and 3 µM and 5.85 µM; EC50 ([2]; EC50, fitted parameter per biological replicate, the 13th table, individual replicate fits): 9.97 µM and 3 µM and 5.85 µM; dose-response, response per biological replicate [2, 16]: 0 and 0.07532 and 0.2134; dose-response, AVERAGE response [2, 16]: 0.09623; dose-response, response per biological replicate [2, 17]: 0.1122 and 0.07908 and 0.2962; dose-response, AVERAGE response [2, 17]: 0.1625; dose-response, response per biological replicate [2, 18]: 0.1336 and 0.1252 and 0.4462; dose-response, AVERAGE response [2, 18]: 0.235; dose-response, response per biological replicate [2, 19]: 0.1449 and 0.1487 and 0.5376; dose-response, AVERAGE response [2, 19]: 0.2771; dose-response, response per biological replicate [2, 20]: 0.2093 and 0.133 and 0.6441; dose-response, AVERAGE response [2, 20]: 0.3288; MAX, fitted average curve ([2]; the 13th table, fit to the average curve, n 0.854956): 0.3433; MAX, fitted parameter per biological replicate ([2]; the 13th table, individual replicate fits): 0.2031 and 0.1439 and 0.6228 and 0.37 |
| C=C1[C@H]2CC[C@@H]3[C@H]2C(C)(C)CCC[C@]13C [(+)-longifolene] |  |  |  |  |  |  |  | 0.05372 |  |  |  |  |  |  | 0 | 0 | 0 | OR10a Average response (VUAA1-normalized) [1, 21]: 0.08; OR10a Average response (VUAA1-normalized) [1, 22]: 0.0537; OR10a Average response (VUAA1-normalized) [1, 23]: 0.028; OR10a response (VUAA1-normalized response) ([1]; VOC concentration 1 μM): 0.08; OR10a response (VUAA1-normalized response) ([1]; VOC concentration 10 μM): 0.0537; OR10a response (VUAA1-normalized response) ([1]; VOC concentration 100 μM): 0.00; OR13a Average response (VUAA1-normalized) [2, 21]: 0.00; OR13a Average response (VUAA1-normalized) [2, 22]: 0.037; OR13a Average response (VUAA1-normalized) [2, 23]: 0.00; OR13a response (VUAA1-normalized response) ([2]; VOC concentration 1 μM): 0.00; OR13a response (VUAA1-normalized response) ([2]; VOC concentration 10 μM): 0.00; OR13a response (VUAA1-normalized response) ([2]; VOC concentration 100 μM): 0.00 |
